{
  "source": "patent US20140221301A1",
  "about": "“COMBINATION TREATMENT FOR CANCER” (priority 2011, published 2014)",
  "key": {"[1]": {"system": "Cox-1, Cox-2 (mitochondrially-translated subunits I and II) over Cox-4", "assay": "Immunoblotting of cytochrome C oxidase subunits in leukemia cells", "type": "cell-based, human", "details": "TEX, OCI-AML2, two AML patients; 2.5 μM and 5 μM, 36 and 48 hours", "experimental": "FIG. 4. […] (A) Cells from TEX, OCI-AML2 and two primary AML patients were treated with increasing concentrations (2.5 μM and 5 μM) of tigecycline for 36 and 48 hours of tigecycline. Total proteins were extracted and analyzed by western blotting for Cox-1, Cox-2, Cox-4, grp78, XIAP, actin and tubulin. (B) TEX and AML patient cells were treated with increasing concentrations (2.5 μM and 5 μM) of tigecycline. Cox-1, Cox-2, and Cox-4 mRNA expression relative 18S was determined by quantitative RT-PCR. Data is shown as mean±SD. (C) TEX cells were treated with increasing concentrations of tigecycline and chloramphenicol (CAP) for 72 hours. Complex I, II and IV enzyme activity relative to citrate synthase activity was determined as described in materials and methods. (D) Cells from TEX, primary AML patients, and normal donors were treated with increasing concentrations of tigecycline. Mitochondrial membrane potential (ΔΨ) was determined by staining cells with JC-1 dye, and flow cytometry analysis (Red/Green ratio). Reactive oxygen species generation (ROS) was determined by staining with h2-DCFDA and Dihydroethidium (DHE).\nTotal cell lysates were prepared from cells as described previously^32. […] Protein concentrations were measured by the DC Protein assay. […]"}, "complex II": {"system": "complex II", "assay": "Respiratory chain enzyme activity relative to citrate synthase, complex II", "type": "cell-based, human", "details": "TEX cells, 2.5 μM and 5 μM, 72 hours", "experimental": "(§1) FIG. 4. Tigecycline decreases mitochondrial Cox-1 protein levels in TEX cells. (A) Cells from TEX, OCI-AML2 and two primary AML patients were treated with increasing concentrations (2.5 μM and 5 μM) of tigecycline for 36 and 48 hours of tigecycline. Total proteins were extracted and analyzed by western blotting for Cox-1, Cox-2, Cox-4, grp78, XIAP, actin and tubulin. (B) TEX and AML patient cells were treated with increasing concentrations (2.5 μM and 5 μM) of tigecycline. Cox-1, Cox-2, and Cox-4 mRNA expression relative 18S was determined by quantitative RT-PCR. Data is shown as mean±SD. (C) TEX cells were treated with increasing concentrations of tigecycline and chloramphenicol (CAP) for 72 hours. Complex I, II and IV enzyme activity relative to citrate synthase activity was determined as described in materials and methods. […] Mitochondrial membrane potential (ΔΨ) was determined by staining cells with JC-1 dye, and flow cytometry analysis (Red/Green ratio). Reactive oxygen species generation (ROS) was determined by staining with h2-DCFDA and Dihydroethidium (DHE).\nThe effect of tigecycline treatment on enzyme activity of the respiratory chain complexes relative to the mitochondrial non-respiratory chain enzyme citrate synthase was examined. TEX leukemia cells were treated with tigecycline for […] and then respiratory chain enzyme relative to citrate synthase activity was analyzed. […]"}, "[2]": {"system": "normal hematopoietic cells from G-CSF mobilized normal donors", "assay": "Mitochondrial membrane potential, JC-1, normal hematopoietic cells", "type": "cell-based, human", "details": "normal cells from two G-CSF mobilized donors", "experimental": "as §1, with “(C) TEX cells were treated with increasing concentrations of tigecycline and chloramphenicol (CAP) for 72 hours.” left out\nTo measure mitochondrial membrane potential, cells were treated with tigecycline similarly as described above and then washed twice with PBS and incubated with 5 μM of 5,5′,6,6′-tetrachloro-1,1′,3,3′-tetraethyl benzimidazolylcarbocyanine iodide (JC-1, Sigma-Aldrich) for 20 minutes at 37° C. Each sample was then washed twice with 1 mL PBS and resuspended in 500 μL PBS prior to being read on a BD FACSCalibur. […]"}, "[3]": {"details": "intravenous doses of 300 mg; cited from earlier work"}, "[4]": {"details": "rat, in vivo, 30 mg/kg/day; cited from earlier work"}},
  "data": [
    {"smiles": "CN(C)c1cc(NC(=O)CNC(C)(C)C)c(O)c2c1C[C@H]1C[C@H]3[C@H](N(C)C)C(O)=C(C(N)=O)C(=O)[C@@]3(O)C(O)=C1C2=O", "note": "[tigecycline]", "values": [
      {"measurement": "protein level of mitochondrially-translated subunits I and II over nuclear-translated subunit IV", "setting": "[1]", "result": "preferential decrease"},
      {"measurement": "complex II activity relative to citrate synthase", "setting": "complex II", "result": "less affected"},
      {"measurement": "loss of mitochondrial membrane potential", "setting": "[2]", "result": "not seen"},
      {"measurement": "tolerability", "setting": "[3]", "result": "well tolerated save for mild nausea"},
      {"measurement": "toxicology findings", "setting": "[4]", "result": "reversible anemia, thrombocytopenia, and leucopenia with a hypocellular bone marrow"}
    ]}
  ]
}
